Results taken from patent US20200247808A1, “Heterocyclic Tec-Family Kinase Inhibitors” (GB005, Inc., priority 2015, published 2020).
Like-named read-outs stand apart in the source and are kept apart here.

Tests used:
human BTK = biological target: T1, human BTK (Homo sapiens, UniProt Q06187); assay: BTK kinase inhibition, KinaseProfiler radiometric protein kinase assay (Eurofins); format: biochemical
T1 construct: purchased Eurofins Pharma Discovery Services UK Limited (contract assay, KinaseProfiler)
T1 sequence (Q06187 whole entry): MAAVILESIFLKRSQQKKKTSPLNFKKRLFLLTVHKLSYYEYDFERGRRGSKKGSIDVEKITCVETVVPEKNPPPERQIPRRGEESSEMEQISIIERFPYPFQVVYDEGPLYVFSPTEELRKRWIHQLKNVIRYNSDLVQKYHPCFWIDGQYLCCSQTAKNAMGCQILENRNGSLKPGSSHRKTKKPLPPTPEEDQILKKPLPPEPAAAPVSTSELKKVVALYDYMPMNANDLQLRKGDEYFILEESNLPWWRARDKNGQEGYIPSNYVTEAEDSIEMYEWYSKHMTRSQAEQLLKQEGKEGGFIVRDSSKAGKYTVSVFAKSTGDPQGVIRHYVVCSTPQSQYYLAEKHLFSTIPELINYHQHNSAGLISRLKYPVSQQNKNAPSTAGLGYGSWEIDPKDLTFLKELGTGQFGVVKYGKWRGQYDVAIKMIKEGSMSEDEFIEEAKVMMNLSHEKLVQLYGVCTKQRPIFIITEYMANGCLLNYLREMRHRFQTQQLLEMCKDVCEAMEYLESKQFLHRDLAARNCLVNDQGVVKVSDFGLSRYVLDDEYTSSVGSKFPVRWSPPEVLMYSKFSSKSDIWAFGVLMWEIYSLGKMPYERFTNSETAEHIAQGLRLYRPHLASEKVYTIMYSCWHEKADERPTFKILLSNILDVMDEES
Protocol: In vitro potency of selected compound was defined against human BTK, EGFR, and ErbB2 kinases using Kinase Profiler radiometric protein kinase assays performed at Eurofins Pharma Discovery Services UK Limited.
Each kinase is diluted in buffer and all compounds were prepared to 50x final assay concentration in 100% DMSO. This working stock of the compound was added to the assay well as the first component in the reaction, followed by the remaining components as detailed in the assay protocol listed above. The reaction was initiated by the addition of the MgATP mix. […] (specific activity approx. 500 cpm/pmol, concentration as required) and variable test article concentrations. […] The reaction was stopped by the addition of 3% phosphoric acid solution. 10 μL of the reaction is then spotted onto a P30 filtermat and washed three times for 5 minutes in 75 mM phosphoric acid and once in methanol prior to drying and scintillation counting. In addition positive control wells contain all components of the reaction, except the compound of interest; however, DMSO (at a final concentration of 2%) were included in these wells to control for solvent effects as well as blank wells contain all components of the reaction, with a reference inhibitor replacing the compound of interest. This abolishes kinase activity and establishes the base-line (0% kinase activity remaining). The potency of each compound was reported by estimating the EC50.

splenocytes = assay: Splenic cell proliferation assay (anti-IgM stimulated, Cell Titer-Glo); format: cell-based, mouse (CD1); conditions: Splenocyte; mouse splenocytes, 2.5 μg/ml anti-IgM F(ab')2, 72 h; read-out: Spleen cell EC50
Protocol: Proliferation of splenocytes in response to anti-IgM can be blocked by inhibition of BTK. Splenocytes were obtained from 6 week old male CD1 mice (Charles River Laboratories Inc.). Mouse spleens were manually disrupted in PBS and filtered using a 70um cell strainer followed by ammonium chloride red blood cell lysis. Cells were washed, resuspended in Splenocyte Medium (HyClone RPMI supplemented with 10% heat-inactivated FBS, 0.5X non-essential amino acids, 10 mM HEPES, 50 μM beta mercaptoethanol) and incubated at 37° C., 5% CO2 for 2h to remove adherent cells. Suspension cells were seeded in 96 well plates at 50,000 cells per well and incubated at 37° C., 5% CO2 for 1h. Splenocytes were pre-treated in triplicate with 10,000 nM curves of Formula 1 compounds for 1h, followed by stimulation of cell proliferation with 2.5 μg/ml anti-IgM
F(ab′)2 (Jackson ImmunoResearch) for 72 h. Cell proliferation was measured by Cell Titer-Glo Luminescent Assay (Promega). EC50 values (50% proliferation in the presence of compound as compared to vehicle treated controls) were calculated from dose response compound curves using GraphPad Prism Software.

[1] = Formation of glutathione adducts (GSH reactivity, HPLC-UV); format: in vitro ADME; conditions: 10 mM GSH, 20 micromolar test article, pH 7.4, 37° C.
Protocol: Generation of non-specific thiol adducts can be measured by assaying reactivity of compounds with GSH. Formation of GSH adducts was measured by incubating GSH (10 mM) in 100 mM Phosphate Buffer pH 7.4 with test article at 20 micromolar final concentration. Briefly, 600 microliters of phosphate buffer pH 7.4 was added in a glass vial with 200 microliters of 100 micromolar test article in DMSO. Samples were warmed at 37° C. for 10 minutes and the reaction was initiated by the addition of 200 microliters of 50 mM reduced GSH in phosphate buffer pH 7.4 and incubated at 37° C. At various time points (0.5 min, 5 min, 15 min, 30 min, 60 min, 120 min and 180 min) 50 microliter aliquots were placed into an injection vial equipped with an insert and mixed with 50 microliters of 1% formic acid in 99% Methanol. Vials were loaded onto the HPLC injection tray and each sample was injected onto a C18 column (ACE 3 C18, 4.6×50 mm column) and both the parent and product were monitored by UV absorbance at 254 nm on an Agilent Technologies 1100 series HPLC. Peaks were integrated and the percentage of product present calculated as the percent of the total peak area on the parent and product at 60 minutes.

[2] = test system: TMD-8 human activated B cell diffuse large B cell lymphoma cells; assay: TMD-8 survival assay (Cell Titer-Glo); format: cell-based; conditions: TMD8, TMD-8 cells, 72 h
Protocol: TMD-8 human activated B cell diffuse large B cell lymphoma cells were seeded in 96-well plates at a density of 20,000 cells/well in HyClone RPMI supplemented with 10% FBS (Fisher)/1% Penicillin/Streptomycin (HyClone) and incubated at 37° C., 5% CO2. Cells were treated in triplicate with 1,000 nM or 100 nM curves of compounds for 72h. Cell survival was measured by Cell Titer-Glo Luminescent Assay (Promega). EC50 values (50% proliferation in the presence of compound as compared to vehicle treated controls) were calculated from dose response compound curves using GraphPad Prism Software.

[3] = Mouse plasma pharmacokinetics; format: in vivo, mouse (CD-1); conditions: male, CD-1, mouse, mice
Protocol: Plasma pharmacokinetic studies were conducted in CD1 mice to compare the plasma exposure following oral and intravenous administration of the free-base form of each compound to mice and to calculate bioavailability. Male CD-1 mice (25-30 g on delivery; Charles River) were used for mouse PK studies. The mice were housed 3 per cage in a room under controlled conditions of temperature ([…]) and humidity (40-70%), with a 12 h dark/light cycle. The animals were acclimated for a minimum of 3 days prior to use and received standard rodent chow (Charles River) and municipal tap water ad libitum. Nine animals were used per study, they were dosed PO or IV and bled from the mandibular vein, 2 to 3 times per animal at the following time points; pre dose, 15 and 30 min, 1, 2, 3, 5, 7 and 24 h (0.1 mL whole blood /time point; composite PK). Blood was collected into microvette K3E tubes ([…]) at RT and then centrifuged at 5,000 RPM for 2 min at 4° C. in order to separate plasma. Isolated plasma (0.015 mL/time point) was pipetted into 96 well plates (Canadian Life Science) which were stored at minus 20° C. until analysis (2 duplicate plates per study).
Concentrations of compound in rodent plasma samples were determined by LC-MS-MS. Two standard curves containing 8 points each were prepared by spiking in methanol or plasma with a solution containing the test article at a defined concentration. The range of final compound concentration in the standard curve was 0 to 1 μg/mL. Three sets of quality control (QC) samples in plasma at low, medium and high concentration within the standard curve range were also prepared. For analysis, the compound was extracted using protein precipitation extraction procedure. Briefly, a three-fold volume of methanol containing an internal standard was added to the plasma and standard curve solution samples and then incubated at 4° C. for 5 minutes. The plates were centrifuged for 30 minutes at 4° C. at 4000 rpm and the resulting supernatant was transferred to a 96-well propylene plates and sealed with cover to avoid sample evaporation. Ten μL aliquots of extracted samples were injected using a 96-well plate autosampler held at 4° C. onto a ACE C18 50×4.6 mm, 3 um HPLC column held at 30° C. Plasma derived parent compound was eluted using the following conditions: pump flow rate was set at 1 mL/min for a five minutes chromatographic method using a 3 min gradient elution from 20% solvent A (0.1% formic acid in water) and 80% solvent B (0.1% Formic Acid in Methanol) to 10% solvent A and 90% solvent B. The method was followed by 1 min column wash at 95% solvent B and 1 min column re-equilibration back to 80% solvent B. Under these conditions the compound was eluted after 1.8 minutes. For LC-MS-MS compound detection, the curtain gas was set at 10, collision gas was set at 8, ion spray voltage was set at 4500, temperature was set at 500, ion source gas 1 was set at 40 and ion source gas 2 was set at 60. Using a positive ionization mode, the MRM transition monitored was set at […]. Under these conditions, standard curves were linear up to 2000 ng/mL, the lower limit of quantification was generally at 10 ng/mL.
The area under the curve (AUCtot and AUClast), the maximum plasma concentration (Cmax) and time (Tmax), and terminal half life (T1/2), clearance and volume of distribution were calculated by regression analysis using Kinetica version 5.0 (Thermo Fisher Scientific) using a Non-Compartmental Extravascular/IV Bolus analysis model.

SMILES	IC50 (human BTK) [nM]	GSH Reactivity GSH Conjugate at 60 minutes [1]	AUC ([3]; intravenous 3 mg/kg, free base, read-out: Intravenous AUC) [ng·h/mL]	bioavailability ([3]; oral 10 mg/kg vs intravenous 3 mg/kg) [%]	Cmax ([3]; oral 10 mg/kg, free base) [ng/mL]	AUC ([3]; oral 10 mg/kg, free base, read-out: Oral AUC) [ng·h/mL]	EC50 (splenocytes) [nM]	EC50 [2] [nM]
C=CC(=O)N[C@H]1C[C@@H](n2nc(-c3ccc(Oc4ccc(F)cc4F)cc3)c3c(N)ncnc32)C1 [Compound 3]	10	12.6 % of total Peaks					0.9	6.5
CC#CC(=O)N(C)[C@H]1C[C@@H](n2nc(-c3ccc(Oc4ccccc4)cc3)c3c(N)ncnc32)C1 [Compound 4]	1	8.4 % of total Peaks					0.8	5.4
C=CC(=O)N(C)[C@H]1C[C@@H](n2nc(-c3ccc(Oc4ccccc4)cc3)c3c(N)ncnc32)C1 [Compound 5]	0.7	28.9 % of total Peaks					0.5	1.9

Continued, in another order:

IC50 (human BTK) [nM]	GSH Reactivity GSH Conjugate at 60 minutes [1]	AUC ([3]; intravenous 3 mg/kg, free base, read-out: Intravenous AUC) [ng·h/mL]	bioavailability ([3]; oral 10 mg/kg vs intravenous 3 mg/kg) [%]	Cmax ([3]; oral 10 mg/kg, free base) [ng/mL]	AUC ([3]; oral 10 mg/kg, free base, read-out: Oral AUC) [ng·h/mL]	SMILES	EC50 (splenocytes) [nM]	EC50 [2] [nM]
3	12.6 % of total Peaks					C=CC(=O)N[C@H]1C[C@@H](n2nc(-c3ccc(Oc4ccccc4)cc3F)c3c(N)ncnc32)C1 [Compound 6]	0.4	3
1	5.9 % of total Peaks					CC#CC(=O)N[C@H]1C[C@@H](n2nc(-c3ccc(Oc4ccccc4)cc3F)c3c(N)ncnc32)C1 [Compound 7]	0.4	1.5
	31.7 % of total Peaks	1070	9.8	219	349	C=CC(=O)N1CCC[C@@H](n2nc(-c3ccc(Oc4ccccc4)cc3)c3c(N)ncnc32)C1 [Reference, 1-((R)-3-(4-amino-3-(4-phenoxyphenyl)-1H-pyrazolo[3,4-d]pyrimidin-1-yl)piperidin-1-yl)prop-2-en-1-one, reference compound]	0.4	2
